Patent publication US10632101B2, “Methods and compositions for supporting endogenous systems related to life span” (USANA Health Sciences, Inc., priority 2016, dated 2020)
Values belong to the molecule of their own block, whether it stands above or below them.

How the values were obtained:
human NF-κB = assay: NF-κB reporter cell assay, antagonist mode; assay type: cell-based
human PPARδ = target: T1, human PPARδ (Homo sapiens, UniProt Q03181); assay: PPARδ reporter cell assay, agonist mode; assay type: cell-based
T1 construct: expressed in transfected cells; host or cells: CHO
T1 sequence (Q03181 211-439 limits assumed): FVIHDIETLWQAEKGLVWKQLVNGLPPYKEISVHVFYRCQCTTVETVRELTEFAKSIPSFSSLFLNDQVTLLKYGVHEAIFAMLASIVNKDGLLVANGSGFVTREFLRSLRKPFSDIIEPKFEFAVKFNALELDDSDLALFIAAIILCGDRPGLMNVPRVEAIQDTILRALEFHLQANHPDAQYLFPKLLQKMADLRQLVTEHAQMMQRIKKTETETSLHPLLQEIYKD

human PPARα = target: T2, human PPARα (Homo sapiens, UniProt Q07869); assay: PPARα reporter cell assay, agonist mode; assay type: cell-based
T2 construct: expressed in transfected cells; host or cells: CHO
T2 sequence (Q07869 239-466 limits assumed): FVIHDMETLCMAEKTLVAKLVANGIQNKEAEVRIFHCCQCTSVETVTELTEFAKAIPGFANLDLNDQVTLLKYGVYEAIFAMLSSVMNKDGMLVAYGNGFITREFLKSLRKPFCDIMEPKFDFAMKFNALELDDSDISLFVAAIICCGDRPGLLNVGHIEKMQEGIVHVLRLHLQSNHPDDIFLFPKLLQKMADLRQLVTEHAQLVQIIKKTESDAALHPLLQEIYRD

human PPARγ = target: T3, human PPARγ (Homo sapiens, UniProt P37231); assay: PPARγ reporter cell assay, agonist mode; assay type: cell-based
T3 construct: expressed in transfected cells; host or cells: CHO
T3 sequence (P37231 238-503 limits assumed): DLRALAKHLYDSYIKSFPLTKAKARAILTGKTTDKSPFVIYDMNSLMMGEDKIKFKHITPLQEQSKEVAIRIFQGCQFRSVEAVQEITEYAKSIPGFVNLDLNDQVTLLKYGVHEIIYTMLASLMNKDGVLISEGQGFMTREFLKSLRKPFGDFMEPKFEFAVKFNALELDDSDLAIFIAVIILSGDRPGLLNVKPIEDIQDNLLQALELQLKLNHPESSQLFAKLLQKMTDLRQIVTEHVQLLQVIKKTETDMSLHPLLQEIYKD

mTOR = target: T4, mTOR (Homo sapiens, UniProt P42345); details: cited from earlier work; for mTOR inhibition: applied to isolated cells in culture
T4 construct: host or cells: isolated cells in culture (not specified)

C. elegans strain CB5586 = assay: Phenotypic lifespan screening in C. elegans; assay type: in vivo; details: for Statistically Significant Result: 10 mg/ml compared to DMSO control; for effect on chronological lifespan: 0.1 and 10 mg/ml tested; for mean lifespan: DMSO control 13.23
Protocol: Dilutions of the test formulations were applied to individual populations of C. elegans and the lifespan of each population was monitored. Any changes in the lifespan of an individual population compared to a control population were recorded and correlated to the respective test formulation (N356 or N357) and the respective dilution (0.1 mg/ml, 1 mg/ml, and 10 mg/ml).
The N256 and N357 formulations were each prepared as individual 100 mg/ml stock solutions in dimethyl sulfoxide (DMSO). Serial dilutions of each stock solution were then prepared at 0.1 mg/ml, 1 mg/ml, and 10 mg/ml in DMSO. Control solutions of DMSO only were also prepared. Synchronous aged adult populations of C. elegans strain CB5586 worms were prepared. The CB5586 strain comprises a pharyngeal GFP (green fluorescent protein) tag and a mutation in the bus-5 gene. The pharyngeal GFP tag allows for fluorescent images of the worm populations to be taken. The mutation in the bus-5 gene causes the loss of normal cuticle antigens that permits the cuticle of the worms to become permeable to the test formulations and allow direct uptake of the test formulations to avoid interaction of the test formulations with protective mechanisms of the gut channel. Each serial dilution of each test formulation was added to a separate population of the prepared worms. The control solutions were also added to separate populations of the prepared worms. The populations of the prepared worms were then maintained on standard nematode growth media (NGM) agar plates at 20° C. with sufficient food (Escherichia coli strain OP-50).
Each worm population was then monitored by fluorescent imaging to determine the number of living and dead worms as a function of time. The fluorescent imaging was analyzed by software that recognized and counted worms based on their fluorescent intensity compared to background fluorescence. […] The ability to distinguish between living and dead worms allowed the number of living worms and a cumulative number of dead worms to be monitored against time. Worm populations from a selection of fluorescent images were manually checked to verify that the software had accurately counted the number of living and dead worms.
The counts of the living and dead worms as a function of time were then analyzed for each of the worm populations and used to prepare Kaplan-Meier survival curves and associated statistics for each of the worm populations. […] The median lifespan is shown as the length of time after the last mitotic division that 50% of the test population remains viable when compared to the control population. The maximum lifespan extension is shown as the length of time after the last mitotic division that 5% of the test population remains viable when compared to the control population.
The counts of the living and dead worms as a function of time and the Kaplan-Meier survival curves and the associated statistics were then analyzed for each of the worm populations. The analysis included determining mean and median lifespan. The analysis included a non-parametric test, the Log-Rank test, which compares two survival functions for the overall lifespan assay and provides a reliable p-value summarizing the whole experiment. The analysis also included Fisher's Exact Test that calculated the significance of survival function comparisons at multiple specific time points throughout the experiment, rather than for the overall lifespan. The results of the analysis are shown below in Tables 10-17.
Phenotypic screening was carried out as described in EXAMPLE 2 for various individual compounds of the N357 formulation. […] Alpha lipoic acid was sourced from PureBulk™ USA as a racemic mix of R and S stereoisomers and was assigned a sample number of N198. Hesperidin was sourced from Sigma Aldrich at ≥80% purity and was assigned a sample number of N347. […]

[1] = tested on: NF-κB reporter cells (HEK293); assay: Live cell multiplex read-out in the NF-κB antagonist assay; assay type: cell-based, human; details: 1.42 μg/ml
Protocol: Various receptor assays were carried out for test compounds corresponding to ingredients of the nutritional supplement composition. In general, the receptor assays utilized reporter cells that either expressed a native receptor or a receptor hybrid. The receptor hybrids were engineered so that the native N-terminal DNA binding domain (DBD) was replaced with a yeast Gal4 DBD. The reporter cells expressed a hybrid receptor comprising either the native receptor (Nrf2 and NF-κB) or the N-terminal Gal4 DNA binding domain fused to the ligand binding domain of the specific human nuclear receptor (PPARα, PPARδ, and PPARγ). The reporter gene (e.g., firefly luciferase) was functionally linked to either upstream receptor-specific response elements (GRE) or the Gal4 upstream activation sequence (UAS). A summary of the receptors, the reporter cells used for each particular receptor assay, and the reference compounds used to confirm performance of the receptor assays are indicated below in Table 4.
A vehicle control was prepared. […] After incubation, fluorescence was measured to determine a relative number of live cells per test well.

Nrf2 = Nrf2 signaling fluorescent reporter assay in human retinal epithelial cell line; assay type: cell-based; details: 100 and 30 μM
Protocol: The assays were carried out with a fluorescent reporter assay that utilized a human retinal epithelial cell line. The assays also included validation by RT-PCR (reverse transcription polymerase chain reaction) of Nrf2 target genes. The human retinal epithelial cell line was purchased from ATCC (American Type Cell Culture, Manassas, Va.) and was configured to function as a fluorescent reporter assay. Test solutions of each of the alpha lipoic acid, resveratrol, curcumin, EGCG, Olivol®, rutin, quercetin, and hesperetin were prepared by serial dilution. Control solutions were also prepared. Positive control solutions of a known Nrf2 agonist, L-sulphoraphane was also prepared. Each test solution was then assayed for Nrf2 signaling activity using the fluorescent reporter assay and compared to control assays. The positive control solutions were also tested.

PPARδ Fold-Activation (human PPARδ; 0.007 μg/ml): 1.2
PPARδ Fold-Activation (human PPARδ; 0.022 μg/ml): 1.2
PPARδ Fold-Activation (human PPARδ; 0.067 μg/ml): 1.0
PPARδ Fold-Activation (human PPARδ; 0.20 μg/ml): 1.2
PPARδ Fold-Activation (human PPARδ; 0.60 μg/ml): 1.3
PPARδ Fold-Activation (human PPARδ; 1.81 μg/ml): 1.0
PPARα Fold-Activation (human PPARα; 0.007 μg/ml): 1.3
PPARα Fold-Activation (human PPARα; 0.022 μg/ml): 1.3
PPARα Fold-Activation (human PPARα; 0.067 μg/ml): 1.3
PPARα Fold-Activation (human PPARα; 0.20 μg/ml): 1.1
PPARα Fold-Activation (human PPARα; 0.60 μg/ml): 1.0
PPARα Fold-Activation (human PPARα; 1.81 μg/ml): 0.86
PPARγ Fold-Activation (human PPARγ; 0.007 μg/ml): 1.0
PPARγ Fold-Activation (human PPARγ; 0.022 μg/ml): 1.0
PPARγ Fold-Activation (human PPARγ; 0.067 μg/ml): 0.95
PPARγ Fold-Activation (human PPARγ; 0.20 μg/ml): 0.96
PPARγ Fold-Activation (human PPARγ; 0.60 μg/ml): 0.90
PPARγ Fold-Activation (human PPARγ; 1.81 μg/ml): 1.1
Compound: COc1cc(/C=C/C(=O)CC(=O)/C=C/c2ccc(O)c(OC)c2)ccc1O [Curcumin, curcumin]
NF-κB % Inhibition (human NF-κB; 0.007 μg/ml): −10%
NF-κB % Inhibition (human NF-κB; 0.60 μg/ml): 30%
mTOR inhibition (mTOR): inhibit mTOR
mTOR inhibition, mitophagy and mitochondrial turnover (mTOR): inhibit mTOR, up-regulate mitophagy, and increase the rate of mitochondrial turnover

Compound: C[C@@H]1O[C@@H](OC[C@H]2O[C@@H](Oc3c(-c4ccc(O)c(O)c4)oc4cc(O)cc(O)c4c3=O)[C@H](O)[C@@H](O)[C@@H]2O)[C@H](O)[C@H](O)[C@H]1O [Rutin, 2-(3,4-dihydroxyphenyl)-5,7-dihydroxy-3-[α-L-rhamnopyranosyl-(1→6)-β-D-glucopyranosyloxy]-4H-chromen-4-one]
NF-κB % Inhibition (human NF-κB; 1.11 μg/ml): 10%

Compound: Cn1c(=O)c2c(ncn2C)n(C)c1=O [caffeine]
mTOR inhibition (mTOR): inhibit mTOR
mTOR inhibition, mitophagy and mitochondrial turnover (mTOR): inhibit mTOR, up-regulate mitophagy, and increase the rate of mitochondrial turnover

Compound: O=c1c(O)c(-c2ccc(O)c(O)c2)oc2cc(O)cc(O)c12 [Quercetin, 2-(3,4-dihydroxyphenyl)-3,5,7-trihydroxy-4H-chromen-4-one]
NF-κB % Inhibition (human NF-κB; 0.84 μg/ml): −6%
Statistically Significant Result (C. elegans strain CB5586): No statistical difference
effect on chronological lifespan (C. elegans strain CB5586): significant negative effect on chronological lifespan

PPARδ Fold-Activation (human PPARδ; 0.043 μg/ml): 1.1
PPARδ Fold-Activation (human PPARδ; 0.389 μg/ml): 1.0
PPARδ Fold-Activation (human PPARδ; 1.167 μg/ml): 1.1
PPARδ Fold-Activation (human PPARδ; 3.5 μg/ml): 0.89
PPARα Fold-Activation (human PPARα; 0.043 μg/ml): 1.4
PPARα Fold-Activation (human PPARα; 0.389 μg/ml): 1.2
PPARα Fold-Activation (human PPARα; 1.167 μg/ml): 1.0
PPARα Fold-Activation (human PPARα; 3.5 μg/ml): 0.79
PPARγ Fold-Activation (human PPARγ; 0.043 μg/ml): 1.0
PPARγ Fold-Activation (human PPARγ; 0.389 μg/ml): 1.1
PPARγ Fold-Activation (human PPARγ; 1.167 μg/ml): 1.1
PPARγ Fold-Activation (human PPARγ; 3.5 μg/ml): 0.55
Compound: COc1ccc([C@@H]2CC(=O)c3c(O)cc(O)cc3O2)cc1O [Hesperetin, (S)-2,3-Dihydro-5,7-dihydroxy-2-(3-hydroxy-4-methoxyphenyl)-4H-1-benzopyran-4-one]

Compound: O=C(O[C@@H]1Cc2c(O)cc(O)cc2O[C@@H]1c1cc(O)c(O)c(O)c1)c1cc(O)c(O)c(O)c1 [EGCG, epigallocatechin gallate]
NF-κB % Inhibition (human NF-κB; 0.033 μg/ml): 10%
NF-κB % Inhibition (human NF-κB; 0.098 μg/ml): 18%
NF-κB % Inhibition (human NF-κB; 0.30 μg/ml): 0.10%
NF-κB % Inhibition (human NF-κB; 0.89 μg/ml): 8.4%
NF-κB % Inhibition (human NF-κB; 2.67 μg/ml): −15%
NF-κB % Inhibition (human NF-κB; 8 μg/ml): −29%
mTOR inhibition (mTOR): inhibit mTOR
mTOR inhibition, mitophagy and mitochondrial turnover (mTOR): inhibit mTOR, up-regulate mitophagy, and increase the rate of mitochondrial turnover

PPARδ Fold-Activation (human PPARδ; 1.42 μg/ml): 1.5
PPARδ Fold-Activation (human PPARδ; 4.25 μg/ml): 1.1
PPARδ Fold-Activation (human PPARδ; 12.7 μg/ml): 0.80
PPARδ Fold-Activation (human PPARδ; 38.23 μg/ml): 0.52
PPARδ Fold-Activation (human PPARδ; 114.70 μg/ml): 0.29
PPARα Fold-Activation (human PPARα; 1.42 μg/ml): 1.4
PPARα Fold-Activation (human PPARα; 4.25 μg/ml): 1.3
PPARα Fold-Activation (human PPARα; 12.7 μg/ml): 1.2
PPARα Fold-Activation (human PPARα; 38.23 μg/ml): 1.5
PPARα Fold-Activation (human PPARα; 114.70 μg/ml): 2.3
PPARγ Fold-Activation (human PPARγ; 1.42 μg/ml): 1.1
PPARγ Fold-Activation (human PPARγ; 4.25 μg/ml): 1.1
PPARγ Fold-Activation (human PPARγ; 12.7 μg/ml): 1.3
PPARγ Fold-Activation (human PPARγ; 38.23 μg/ml): 1.4
PPARγ Fold-Activation (human PPARγ; 114.70 μg/ml): 3.4
Compound: O=C(O)CCCCC1CCSS1 (racemic) [Alpha lipoic acid, alpha lipoic acid]
NF-κB % Inhibition (human NF-κB; 4.25 μg/ml): −0.70%
NF-κB % Live Cell [1]: 100%
activation of Nrf2 (Nrf2): demonstrated activation of Nrf2
effect on chronological lifespan (C. elegans strain CB5586): significant positive and dose-dependent increase of chronological lifespan

Compound: COc1ccc([C@@H]2CC(=O)c3c(O)cc(O[C@@H]4O[C@H](CO[C@@H]5O[C@@H](C)[C@H](O)[C@@H](O)[C@H]5O)[C@@H](O)[C@H](O)[C@H]4O)cc3O2)cc1O [N347, Hesperidin]
extension of lifespan (Kaplan-Meier figure) (C. elegans strain CB5586; 0.1 mg/ml): about 10%
% Change in Mean Lifespan (C. elegans strain CB5586; 0.1 mg/ml compared to DMSO control): +10%
mean lifespan (C. elegans strain CB5586; 0.1 mg/ml): 14.55 days
Statistically Significant Result (C. elegans strain CB5586): No statistical difference
mean lifespan (C. elegans strain CB5586; 10 mg/ml): 14.19 days
effect on chronological lifespan (C. elegans strain CB5586): significant positive and dose-dependent increase of chronological lifespan
